Measured values from US20120231972A1, “Probe Compound for Detecting and Isolating Enzymes and Means and Methods Using the Same” (priority 2009, published 2012).
Values after ≈ are worked out from the molar mass of the structure shown.

Test: physchem
Assay type: physicochemical
Settings: water

solubility: ~240 mM (≈ 222 mg/mL)
SMILES: CC[N+]1=C(/C=C/C=C2/N(CCCCCC(=O)N[C@H](Cc3c[nH]cn3)C(=O)O)c3ccc(S(=O)(=O)[O-])cc3C2(C)C)C(C)(C)c2cc(S(=O)(=O)NCCCC(=O)OCCN(C)C)ccc21 [compound (E), Cy3-His-4-amino-3-butyric acid (N,N-dimethylamino) ethylester]
